Source: patent US10912817B2, “Prelyophilized, lyophilized and reconstituted formulations comprising TAT-NR2B9C with d-amino acids, histidine and trehalose” (NoNO Inc., priority 2012, dated 2021)
No end group written: not given here.

Key:
Type in all cases: physicochemical
[1] = 90 mg/mL NA-1 lyophile accelerated stability (small scale 3); details: histidine buffer concentrations of 50 and 75 mM; further tests; shortened resuspension times
Procedure: A small batch of NA-1 drug product was lyophilized to evaluate solid state stability after 1 week storage at 25° C. and 60° C. Two 90 mg/mL NA-1 formulations were compounded (buffer and buffer with trehalose). Samples were evaluated for appearance, reconstitution, water content and purity by HPLC (MSA method) at t=0 and t=1 week.
Vials were placed on stability at 25° C. and 60° C. and tested after 1 week of storage.

[2] = Solid state stability of lyophilized 270 mg NA-1 in 20 mM histidine pH 6.5 and 120 mM trehalose; details: same lyophile; at −20° C.
[3] = Solubility study of NA-1 (visual analysis); details: pH 6.5, 35, 50, 75 and 100 mg/mL, t=0 and t=24 hours
Procedure: Due to the relatively low Tg temperatures that would likely require a longer lyophilization cycle to dry, we looked at a wider range of standard bulking agents and looked to reduce the fill volume into the container closure system so that there would be a reduced volume of liquid to lyophilize. […] Samples were visually analyzed at 35, 50, 75 and 100 mg/mL. All solutions were clear at t=0 and t=24 hours. […] A wide range of quantities may be required in a vial, but 270 mg would provide a […] dose for a 100 kg patient. Assuming the target reconstitution concentration for patient administration is still 20 mg/mL (but can be from 1 mg/ml to 100 mg/ml), then a 20-mL lyophilization vial containing 270 mg of NA-1 can be used with a reconstitution volume of 13.5 mL. Therefore, optimal volumes of liquid for lyophilization of NA-1 in the vial would be between 2.5 mL and 10 mL.

Sequence: YGRKKRRQRRRKLSSIESDV [NA-1]
- stability of NA-1 [1]: good stability
- stability of the formulation [2]: stable
- solubility (visual analysis of solutions) ([3]; NA-1 in Histidine+Trehalose): clear
- solubility (visual analysis of solutions) ([3]; NA-1 in Histidine): clear
